pEC50: −log10 of the molar value. Where two headings read alike, the source gives them in different places.
Columns and labels:
[1] = system: prostaglandin receptor sites in bovine corpus luteal membranes; test: Ligand binding assay in bovine corpus luteal membranes; conditions: for displacement of bound 3H-unoprostone isopropyl by unlabeled competing ligand: competition studies; for binding to PG receptor sites: in words
Protocol: (§1) In ligand binding studies, the specificity of labeled unoprostone isopropyl and the metabolite binding to prostaglandin receptor sites in bovine corpus luteal membranes was determined. This tissue expresses most of the PG receptors including an abundance of FP receptors. In signal transduction studies, the mobilization of intracellular calcium using Fluorescence Imaging technique in the primary culture of human ciliary muscle cells and cyclic AMP generation in rabbit iris-ciliary body was measured.
This method is well described in the literature. […] Free unbound ligands were separated by rapid filtration using a millipore filtration assembly. Membrane bound radioactivity retained by the filter was counted. It is important to define the following terms for appreciation of the binding data:
Total binding is defined as the amount bound in the absence of unlabeled ligand.
Specific binding is defined as the binding displaced by unlabeled ligand.
Non-specific binding is the binding not displaced by unlabeled ligand.

[2] = system: human ciliary muscle cells; test: Intracellular calcium mobilization (Fura 2-AM) in human ciliary muscle cells; assay type: cell-based; conditions: for affinity for EP1 or FP or TP receptors: suggested by inability to mobilize intracellular calcium
Protocol: as §1
Human ciliary muscle cells at confluency were loaded with Fura 2-AM. Cells in a petri dish were put in a jacketed chamber mounted on the microscope platform. The chamber was maintained at 37° C. by thermostatically controlled water circulating through the chamber jacket. The cells were then exposed to the excitation wavelengths of 334 and 380 nm with an emission wavelength of 510 nm. Cells were perfused with HEPES buffer with or without test compounds. The intracellular calcium was visualized and photographed using Attofluor RatioVision software program and Zeiss fluorescence microscope.

FP-receptor = FP-receptor (Felis catus, UniProt A0ABI7XJ69); test: Functional FP-receptor study, cat iris sphincter muscle contraction; assay type: cell-based; conditions: for pEC50: text restating Table I, read-out: concentration needed to stimulate the FP-receptor at 50% efficacy
Sequence of FP-receptor (A0ABI7XJ69 entry or part of it): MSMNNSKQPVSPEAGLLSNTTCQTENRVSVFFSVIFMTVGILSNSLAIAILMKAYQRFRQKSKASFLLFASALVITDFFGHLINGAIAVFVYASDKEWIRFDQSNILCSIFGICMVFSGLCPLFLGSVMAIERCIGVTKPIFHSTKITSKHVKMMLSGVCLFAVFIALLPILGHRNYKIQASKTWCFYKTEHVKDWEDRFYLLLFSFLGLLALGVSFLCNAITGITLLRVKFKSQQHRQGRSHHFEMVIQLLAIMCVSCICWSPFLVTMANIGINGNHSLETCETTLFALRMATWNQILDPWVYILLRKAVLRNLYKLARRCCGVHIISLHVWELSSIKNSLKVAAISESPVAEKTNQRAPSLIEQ
Protocol: Functional FP-receptor studies were performed using iris sphincter muscles from cat eyes. The eyes were either used directly after enucleation or stored in ice cold saline overnight. The iris sphincter muscles were prepared, cut in halfs, and mounted in thermostated (37° C.) tissue baths with oxygenated modified Kreb's solution containing indomethacin (2.8×10^−6 M), atropine (10^−7 M) and propranolol (10^−7 M). A resting tension of 150 mg was applied, and the contractile force was measured isometrically after cumulative dosing of test compounds. A manual or automated tissue bath system (Buxco, STC 400) was used for the experiments. For each tissue sample the maximal response was normalized to 100%. The mean response of two to four different preparations was calculated.
(§2) Concentration-effect curves were fitted to the data using the logistic sigmoid function.

EP1-receptor = molecular target: T1, EP1-receptor (Bos taurus, UniProt F1MUY4); test: EP1-receptor activity, bovine iris sphincter muscle; assay type: cell-based
T1 sequence (F1MUY4 1-407): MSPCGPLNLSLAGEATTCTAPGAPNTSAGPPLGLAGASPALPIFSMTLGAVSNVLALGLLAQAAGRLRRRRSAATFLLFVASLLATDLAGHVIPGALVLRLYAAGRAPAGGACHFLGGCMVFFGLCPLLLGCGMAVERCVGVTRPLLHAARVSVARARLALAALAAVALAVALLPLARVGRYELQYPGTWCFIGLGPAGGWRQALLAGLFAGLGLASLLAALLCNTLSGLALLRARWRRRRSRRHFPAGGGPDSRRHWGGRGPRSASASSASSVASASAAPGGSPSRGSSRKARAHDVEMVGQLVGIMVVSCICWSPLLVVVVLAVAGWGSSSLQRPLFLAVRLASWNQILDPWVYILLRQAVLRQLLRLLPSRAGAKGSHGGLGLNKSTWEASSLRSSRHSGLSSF
From the text: Iris sphincter muscles from bovine eyes were used for studies of EP1-receptor responses. Freshly enucleated bovine eyes were transported on ice from a slaughterhouse.
as §2

EP2-receptors = EP2-receptors (Cavia porcellus, UniProt A0A286XDB1); test: EP2-receptor activity, guinea-pig ileum twitch inhibition; assay type: cell-based; conditions: for pEC50: smooth muscle bath, guinea-pig ileum
Sequence of EP2-receptors (A0A286XDB1 1-359): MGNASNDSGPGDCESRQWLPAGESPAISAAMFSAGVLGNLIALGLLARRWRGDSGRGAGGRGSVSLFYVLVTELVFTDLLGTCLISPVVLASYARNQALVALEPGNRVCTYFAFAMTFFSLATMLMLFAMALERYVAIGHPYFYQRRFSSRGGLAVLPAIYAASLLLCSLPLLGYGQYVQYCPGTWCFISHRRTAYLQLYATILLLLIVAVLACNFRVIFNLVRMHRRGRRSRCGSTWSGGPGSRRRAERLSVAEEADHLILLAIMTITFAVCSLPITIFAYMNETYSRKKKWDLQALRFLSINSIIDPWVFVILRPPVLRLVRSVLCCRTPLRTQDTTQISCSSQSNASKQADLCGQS
From the text: Segments of guinea-pig ileum were used to study the effect on EP2-receptors. Male guinea pigs were killed with a blow to the head and bled from the carotid arteries. Circular rings (2-3 mm wide) were taken from the ileum about 10 cm from the caecum, A resting tension of 1 g was applied and the preparation was stimulated by using a Gras S88 stimulator delivering trains of square pulses (frequency 7.5 Hz, pulse duration 0.1 msec, train duration 4 sec) to two parallel platinum electrodes in the bath. The voltage over the electrodes was approximately 20V, and the interval between trains was 100 seconds. The peak contractile force at each stimulation train was measured. Test compounds were added cumulatively, and the inhibitory effect on the muscle twitch was evaluated. […] Concentration-effect curves were fitted to the data using the logistic sigmoid function.

EP3-receptors = molecular target: T2, EP3-receptors (Cavia porcellus, UniProt A0A286XLZ9); test: EP3-receptor activity, guinea-pig vas deferens; assay type: cell-based; conditions: for pEC50: smooth muscle bath, guinea-pig vas deferens
T2 sequence (A0A286XLZ9 with tags, fused parts or gaps): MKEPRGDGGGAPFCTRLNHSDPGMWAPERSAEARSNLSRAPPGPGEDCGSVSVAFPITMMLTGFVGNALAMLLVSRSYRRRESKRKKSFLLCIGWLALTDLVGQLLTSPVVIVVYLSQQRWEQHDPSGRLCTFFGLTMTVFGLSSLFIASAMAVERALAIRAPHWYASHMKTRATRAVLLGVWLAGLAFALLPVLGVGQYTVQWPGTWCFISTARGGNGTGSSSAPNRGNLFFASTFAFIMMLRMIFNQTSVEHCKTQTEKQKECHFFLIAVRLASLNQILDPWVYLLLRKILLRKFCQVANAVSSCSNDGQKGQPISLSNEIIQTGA
Protocol: Guinea-pig vas deferens was used to assess the effect on EP3-receptors. Tissue segments of about 10 mm were mounted in tissue baths and the experiments were performed essentially in the same way as described for the guinea-pig circular ileum. Concentration-effect curves were fitted to the data using the logistic sigmoid function.

[3] = treated for about three or more months; cited from earlier work
[4] = cynomolgus monkeys; cited from earlier work
FP receptor = FP receptor (Homo sapiens, UniProt P43088); conditions: background statement; cited from earlier work
Sequence of FP receptor (P43088 whole entry): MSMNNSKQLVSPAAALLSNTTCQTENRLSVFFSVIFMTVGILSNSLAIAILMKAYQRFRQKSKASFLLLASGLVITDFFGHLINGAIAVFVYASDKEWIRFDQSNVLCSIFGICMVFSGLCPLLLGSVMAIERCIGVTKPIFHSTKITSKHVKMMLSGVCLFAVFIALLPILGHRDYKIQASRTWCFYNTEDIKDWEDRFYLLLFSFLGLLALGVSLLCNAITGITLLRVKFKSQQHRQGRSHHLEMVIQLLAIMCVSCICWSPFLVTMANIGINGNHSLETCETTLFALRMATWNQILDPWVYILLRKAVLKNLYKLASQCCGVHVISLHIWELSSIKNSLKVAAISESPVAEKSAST

PGF2α receptors [5] = conditions: free acid form; contraction of cat iris sphincter; cited from earlier work
PGF2α receptors [6] = molecular target: T3, PGF2α receptors (Bos taurus, UniProt P37289); conditions: free acid form; bovine corpus luteum; cited from earlier work
T3 construct: host or cells: bovine corpus luteum
T3 sequence (P37289 whole entry): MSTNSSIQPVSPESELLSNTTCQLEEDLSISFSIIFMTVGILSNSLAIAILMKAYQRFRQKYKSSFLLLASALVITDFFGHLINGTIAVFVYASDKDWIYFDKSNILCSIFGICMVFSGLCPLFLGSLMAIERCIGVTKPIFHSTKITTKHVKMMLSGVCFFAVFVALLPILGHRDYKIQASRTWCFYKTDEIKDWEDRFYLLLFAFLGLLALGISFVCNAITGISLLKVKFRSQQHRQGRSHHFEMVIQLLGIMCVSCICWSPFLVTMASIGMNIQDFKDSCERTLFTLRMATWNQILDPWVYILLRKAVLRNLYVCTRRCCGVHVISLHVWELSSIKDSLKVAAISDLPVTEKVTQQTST

[7] = long-term monkey trial, preliminary published results; cited from earlier work
[8] = competing ligand PGF2α 0.062 μM
[9] = radioligand conc. 8.0 nM (3H-PGF2α)
[10] = concentrations ranging from 10-1000 nM
[11] = competing ligand unoprostone isopropyl 2.5 μM
[12] = competing ligand unoprostone isopropyl 5.0 μM
[13] = competing ligand unoprostone isopropyl 8.0 μM
[14] = competing ligand unoprostone isopropyl 16.0 μM

17-Phenyl trinor PGE1
displacement of bound 3H-unoprostone isopropyl by unlabeled competing ligand [1]: did not displace

O=C(O)CCC/C=C\C[C@@H]1[C@@H](/C=C/[C@@H](O)COc2cccc(C(F)(F)F)c2)[C@H](O)C[C@@H]1O (racemic) [Fluprostenol]
mobilization of intracellular calcium ([2]; FP receptor agonist control, concentration not given): mobilized calcium

O=C(O)CCCC=CCC1C(O)CC(O)C1CCC(=O)CCc1ccccc1 (stereo not shown) [15-keto Latanoprost Acid]
potency on the FP receptor relative to latanoprost acid (FP-receptor; from Table I EC50 values): at least ten times less potent
pEC50 (FP-receptor): 6.59
activity on EP1 receptor (EP1-receptor; in words): virtually no activity
pEC50 (EP1-receptor; read-out: EC50 EP1, smooth muscle bath, bovine iris sphincter): 4.55
activity on EP2 receptor (EP2-receptors; in words): virtually no activity
pEC50 (EP2-receptors): < 4.00
activity on EP3 receptor (EP3-receptors; in words): virtually no activity
pEC50 (EP3-receptors): < 4.00

O=C(O)CCCCCCC1C(=O)NC(=O)N1CCC(O)C1CCCCC1 (stereo not shown) [BW245C]
displacement of bound 3H-unoprostone isopropyl by unlabeled competing ligand [1]: did not displace

CCCC1([C@H](O)C/C=C/[C@H]2[C@H](O)CC(=O)[C@@H]2CCCCCCC(=O)OC)CCC1 [Butaprost]
displacement of bound 3H-unoprostone isopropyl by unlabeled competing ligand [1]: did not displace

O=C(O)CCC/C=C\C[C@@H]1[C@@H](CC[C@@H](O)CCc2ccccc2)[C@H](O)C[C@@H]1O [Latanoprost Acid]
pEC50 (FP-receptor): 8.00
pEC50 (EP2-receptors): 3.28
pEC50 (EP3-receptors): 4.55

CC(C)OC(=O)CCC/C=C\C[C@@H]1[C@@H](CC[C@@H](O)CCc2ccccc2)[C@H](O)C[C@@H]1O [Latanoprost, 13,14-dihydro-17-phenyl-18,19,20-trinor PGF2α isopropyl ester]
receptor selectivity (FP vs other prostaglandin receptors) (FP-receptor; from Table I): selective agonist for the FP receptor
human patients with brown pigmentation of the iris [3]: ≥ 10%
iridial pigmentation [4]: induced increased iridial pigmentation
specific binding affinity for the FP receptor (FP receptor): substantial specific binding affinity

CCCCCC(O)C=CC1C(O)CC(=O)C1CC=CCCCC(=O)OC(C)C (stereo not shown) [PGE2-IE]
iridial pigmentation [4]: induced increased iridial pigmentation

CCCCC[C@H](O)/C=C/[C@@H]1[C@@H](C/C=C\CCCC(=O)OC(C)C)[C@@H](O)C[C@H]1O [PGF2α-IE]
iridial pigmentation [4]: induced increased iridial pigmentation

CCCCC[C@H](O)/C=C/[C@@H]1[C@@H](C/C=C\CCCC(=O)O)[C@@H](O)C[C@H]1O [PGF2α]
specific binding to bovine corpus luteal membranes (in words) [1]: bound specifically
Specific Binding (3H-PGF2α) [1, 8]: 0.07 fmoles/mg Protein
Total 3H-PGF2α binding [1, 8]: 0.56 fmol/mg protein
Specific Binding (3H-PGF2α) ([1]; competing ligand PGF2α 0.25 μM): 0.15 fmoles/mg Protein
Total 3H-PGF2α binding ([1]; competing ligand PGF2α 0.25 μM): 0.56 fmol/mg protein
Specific Binding (3H-PGF2α) ([1]; competing ligand PGF2α 0.5 μM): 0.25 fmoles/mg Protein
Total 3H-PGF2α binding ([1]; competing ligand PGF2α 0.5 μM): 0.56 fmol/mg protein
Specific Binding (3H-PGF2α) ([1]; competing ligand PGF2α 8.0 μM): 0.42 fmoles/mg Protein
Total 3H-PGF2α binding ([1]; competing ligand PGF2α 8.0 μM): 0.56 fmol/mg protein
displacement of bound 3H-unoprostone isopropyl by unlabeled competing ligand [1]: did not displace
Specific Binding ([1]; radioligand conc. 2.0 nM): 120.0 ± 15.0 fmoles/mg protein
Total Binding ([1]; radioligand conc. 2.0 nM): 150.0 ± 16.0 fmoles/mg protein
Total Binding ([1]; radioligand conc. 4.0 nM): 325.0 ± 25.0 fmoles/mg protein
Specific Binding [1, 9]: 423.0 ± 40.0 fmoles/mg protein
Total Binding [1, 9]: 505.0 ± 75.0 fmoles/mg protein

CCCCC[C@H](O)/C=C/[C@@H]1[C@@H](C/C=C\CCCC(=O)O)[C@H]2CO[C@@H]1C2 [U46619]
displacement of bound 3H-unoprostone isopropyl by unlabeled competing ligand [1]: did not displace

CC#CCC(C)[C@H](O)/C=C/[C@@H]1[C@H]2C/C(=C/CCCC(=O)O)C[C@H]2C[C@H]1O (stereo partly shown) [iloprost]
displacement of bound 3H-unoprostone isopropyl by unlabeled competing ligand [1]: did not displace

CCCCCCCC(=O)CC[C@@H]1[C@@H](C/C=C\CCCC(=O)O)[C@@H](O)C[C@H]1O [metabolite]
binding to PG receptor sites [1]: does not bind
mobilization of intracellular calcium [2, 10]: did not mobilize
affinity for EP1 or FP or TP receptors [2]: no affinity
agonistic activity to PGF2α receptors relative to PGF2α (PGF2α receptors [5]): 1/1600
binding inhibitory activity relative to PGF2α (PGF2α receptors [6]): 1/280

CCCCCCCC(=O)CC[C@@H]1[C@@H](C/C=C\CCCC(=O)OC(C)C)[C@@H](O)C[C@H]1O [unoprostone isopropyl, 13,14-dihydro-15-keto-20-ethyl PGF2α isopropyl ester]
specific binding to bovine corpus luteal membranes (in words) [1]: no specific binding sites
Total Binding ([1]; at 5 minutes): 21.0 fmoles/mg protein
Specific Binding of 3H-unoprostone isopropyl [1, 11]: 0
Total 3H-unoprostone isopropyl binding [1, 11]: 7.0 ƒmoles/mg protein
Specific Binding of 3H-unoprostone isopropyl [1, 12]: 0
Total 3H-unoprostone isopropyl binding [1, 12]: 6.5 ƒmoles/mg protein
Specific Binding of 3H-unoprostone isopropyl [1, 13]: 0
Total 3H-unoprostone isopropyl binding [1, 13]: 6.7 ƒmoles/mg protein
Specific Binding of 3H-unoprostone isopropyl [1, 14]: 0
Total 3H-unoprostone isopropyl binding [1, 14]: 7.6 ƒmoles/mg protein
displacement of bound 3H-unoprostone isopropyl by unlabeled competing ligand [1]: did not displace
binding to DP, EP1, EP2, EP3, IP and TP receptor sites ([1]; concluded from competition studies): does not bind
binding to PG receptor sites [1]: does not bind
specific binding to bovine corpus luteal membranes (in words) ([1]; listed as 3H-unoprostone isopropyl): no specific binding
Total Binding ([1]; membrane protein conc. 50 μg): 13.0 ± 2.0 (3) fmoles/mg protein
Total Binding ([1]; membrane protein conc. 100 μg): 23.0 ± 6.0 (3) fmoles/mg protein
Total Binding ([1]; membrane protein conc. 200 μg): 32.0 ± 8.0 (3) fmoles/mg protein
Specific Binding ([1]; radioligand conc. 8.0 nM): 0 fmoles/mg protein
Total Binding ([1]; radioligand conc. 8.0 nM): 19.4 ± 2.0 ƒmoles/mg protein
Specific Binding ([1]; radioligand conc. 16.0 nM): 0 fmoles/mg protein
Total Binding ([1]; radioligand conc. 16.0 nM): 25.5 ± 4.0 ƒmoles/mg protein
Specific Binding ([1]; radioligand conc. 32.0 nM): 0 fmoles/mg protein
Total Binding ([1]; radioligand conc. 32.0 nM): 40.0 ± 7.0 ƒmoles/mg protein
change of total binding with time ([1]; up to 60 minutes): did not increase with time
mobilization of intracellular calcium [2, 10]: did not mobilize
affinity for EP1 or FP or TP receptors [2]: no affinity
iridic pigmentation [7]: no iridic pigmentation
